# Results: patent US20230165817A1, “DOPAMINERGIC MIMETICS” (TDELTAS LIMITED, priority 2004, published 2023)
# Columns and labels:
# [1] = system: electrical power of four rat brain areas (frontal cortex, hippocampus, striatum, reticular formation); conditions: literature (Dimpfel et al., 1987; Dimpfel, 2003); cited from earlier work
# [2] = system: electrical power of four rat brain areas (frontal cortex, hippocampus, striatum, reticular formation); experiment: EEG measurements (Tele-Stereo-EEG) in freely-moving rats after single intraperitoneal injection; type: in vivo, Fisher rats
# From the text: Analysis of brain field potentials (“Tele-Stereo-EEG”) has been proven to be a very sensitive tool for the characterization of drug effects on the central nervous system (Dimpfel et al., 1986). After administration of a centrally active drug, quantitative changes in the brain field potentials can be considered as a characteristic fingerprint of that particular drug. “Fingerprints” of more than 100 compounds have been obtained including 8 established drug categories, e.g. stimulants, sedatives, hallucinogenics, tranquilizers, analgesics, antidepressants, neuroleptics, and narcotics. Different dosages of the same drug cause quantitative changes in electrical power. […] Direct comparison with specific reference drugs, or by discriminant analysis with reference to an extensive fingerprint database, permits the detection of any possible similarities with established drugs. In general, “fingerprints” show prominent differences for drugs prescribed for different indications and are similar for drugs with similar indication (Dimpfel, 2003). Furthermore, the pattern of EEG changes in the rat is a useful tool in predicting possible changes in the EEG power spectrum in humans.
# Adult Fisher rats (4-6 month of age and day-night converted, bodyweight approximately 400 g) were implanted with 4 bipolar concentric steel electrodes using a stereotaxic surgical procedure. According to the coordinates of Paxinos and Watson (1982), all four electrodes were placed 3 mm lateral within the left hemisphere. Anterior coordinates were 12.2, 5.7, 9.7 and 3.7 mm for frontal cortex, hippocampus, striatum and reticular formation, respectively. A baseplate carrying the electrodes and a 5-pin-plug was fixed to the skull by dental cement attached to 3 steel screws fixed into the skull. Animals were given two weeks for recovery from the surgical procedure.
# EEG signals were recorded from frontal cortex, hippocampus, striatum and reticular formation and were amplified and processed as described by Dimpfel et al. (1986). After automatic artefact rejection, signals were collected in sweeps of 4 s duration and submitted to Fast Fourier transformation. The resulting electrical power spectra were divided into 6 frequency ranges: delta (0.8-4.5 Hz); theta (4.75-6.75 Hz); alpha1 (7.00-9.50 Hz); alpha2 (9.75-12.50 Hz); beta (12.75-18.50 Hz); beta2 (18.75-35.00 Hz). […] In an off-line procedure spectra were averaged to give 15 minute or longer periods for further statistical analysis.
# Four doses of KTX 0101 (sodium (R)-3-hydroxybuytrate: 100, 300, 600 and 1000 mg/kg body weight) (supplied by Solvias AG, CH 4002 Basel, Switzerland, batch No: SO-1058.047.1.120) and a vehicle control (0.9% w/v saline) were administered intraperitoneally to a group of 12 animals using a crossover design with at least 3 drug holidays in between the applications. After a pre-drug period of 45 minutes for baseline recording, drug effects were observed continuously for 300 minutes. Changes of electrical power (μV2/W) are expressed as percentage of the 45 minute pre-drug values. Multivariate statistics were calculated according to Ahrens and Läuter (1974).
# [3] = Plasma determination of (R)-3-hydroxybutyrate after intraperitoneal injection; type: in vivo, Sprague-Dawley rats; conditions: rat
# Experimental: (§1) One hundred and seventy-one male Sprague-Dawley rats (weight range 200-250 g) housed on a standard […] were used. Animals had free access to a standard pelleted rat diet and tap water at all times. KTX 0101 (sodium (R)-3-hydroxybuytrate; 100, 300, 600 and 1000 mg/kg body weight) supplied by Sigma (H6501, Lot 111K2618) was administered by intraperitoneal injection. Control animals received the appropriate 0.9% saline vehicle via the same route. Animals were killed by CO2 asphyxiation 0 h, 0.5 h, 1.0 h or 2.0 h after dosing and a terminal blood sample was collected by cardiac puncture. Blood was taken in lithium heparinised tubes and kept on ice prior to centrifugation to yield the plasma samples for analysis.
# Commercial clinical assay kits for the determination of D-β-hydroxybutyrate were obtained from Randox Laboratories (Antrim, UK). The kit quantified NADH via the activity of β-hydroxybutyrate dehydrogenase measured as an increase in OD340 nm. An alkaline pH is necessary to drive the reaction equilibrium towards the production of NADH and acetoacetate.
# This spectrophotometric assay was modified for application to a 96 well microplate format. The reaction rate was then determined from the increase in OD340 nm over a 1 minute time course, after allowing a necessary period for the reaction rate to settle.
# [4] = Plasma determination of acetoacetate after intraperitoneal injection; type: in vivo, Sprague-Dawley rats; conditions: 30 min after dosing, rat
# Experimental: as §1
# The assay developed for the determination of acetoacetate was based on previously published clinical assays (Li et al, 1980; McMurray et al, 1984). A different assay buffer was prepared (0.1M Na2PO4 adjusted to pH 7.0 with HCl) in order to shift the equilibrium of the reaction to production of β hydroxybutyrate and NAD+. Other modifications included the additional use of sodium oxalate at a final assay concentration of 20 mM to inhibit lactate dehydrogenase (LDH) present in the plasma samples. […]
# Acetoacetate was measured via the reduction in OD340 nm over a 1 minute period after allowing for the reaction rate to settle.
structure (smiles),measurement,setting,value
N[C@@H](Cc1ccc(O)c(O)c1)C(=O)O [L-DOPA],EEG frequency changes of drugs enhancing dopaminergic function,[1],"decrease delta, theta and alpha2 frequencies"
"C[C@@H](O)CC(=O)[O-].[Na+] [KTX 0101, sodium (R)-3-hydroxybuytrate]",Duration of EEG effects,"[2]; 100 mg/kg body weight ip, rat",1 to 2 h
same,Statistical significance of EEG changes,"[2]; 100 mg/kg body weight ip, rat",not statistically significant
same,Changes in EEG power spectrum (frequency changes),"[2]; 100 mg/kg body weight ip, rat, vs pre-drug values",decrease of electrical power mainly with regard to alpha2
same,Duration of EEG pattern of changes,"[2]; 300 mg/kg ip, rat",2 h
same,Statistical significance of EEG changes,"[2]; 300 mg/kg ip, rat",only statistically significant in the reticular formation
same,Changes in EEG power spectrum (frequency changes),"[2]; 300 mg/kg ip, rat, vs pre-drug values",decreases in alpha2 power throughout all brain regions
same,Duration of EEG effects,"[2]; 600 mg/kg ip, rat, brain regions except reticular formation",~2 h
same,Statistical significance of EEG changes,"[2]; 600 mg/kg ip, rat, including first hour within striatum and all 24 variables",statistically significant
same,Duration of decreases in EEG power in the reticular formation,"[2]; 600 mg/kg ip, rat, reticular formation",persisted throughout the third hour
same,Changes in EEG power spectrum (frequency changes),"[2]; 1000 mg/kg ip, rat","identical pattern of change, but with more prominent decreases of power"
same,Duration of decreases of EEG power,"[2]; 1000 mg/kg ip, rat",lasting into the third hour
same,Statistical significance of EEG changes,"[2]; 1000 mg/kg ip, rat, even for the 4th hour within the reticular formation",statistically significant
same,Duration of decreases of EEG power in the reticular formation,"[2]; 1000 mg/kg ip, rat, reticular formation, total experimental time",5 h
same,Similarity of qEEG fingerprint to drug classes by discriminant analysis,"[2]; 24 variables, 20th to 50th min after single-dose application, rat","close proximity to the dopamine reuptake inhibitor, cocaine and the dopamine releasing agent, d-amphetamine"
same,Period of greatest changes in EEG patterns,"[2]; after ip injection, rat",5 to 65 min
same,"EEG changes, summary over dose range","[2]; dose range 300 to 1000 mg/kg ip, rat","clear, dose- and time-dependent statistically significant changes"
same,Specific EEG frequencies changed,"[2]; rat, ip","decrease the delta, theta and alpha2 EEG frequencies"
same,"EEG power spectrum changes, dose dependence","[2]; single ip injection, range 100 to 1000 mg/kg, freely-moving rats","clear, dose-dependent changes in the EEG power spectrum"
same,Plasma concentration of (R)-3-hydroxybutyrate,"[3]; 100, 300, 600 and 1000 mg/kg ip",clear dose-dependent increases
same,Time at which plasma (R)-3-hydroxybutyrate had returned to control values,"[3]; 100-1000 mg/kg ip, after injection",≤ 1 h
same,Time of highest elevations in plasma (R)-3-hydroxybutyrate,"[3]; 100-1000 mg/kg ip, first sample",30 min
same,Plasma concentration of acetoacetate,[4]; 600 mg/kg ip,significantly increased
same,Plasma concentration of acetoacetate,[4]; 1000 mg/kg ip,significantly increased
Oc1cc2c(cc1O)C(c1ccccc1)CNCC2 (stereo not shown) [SKF 38393],EEG frequency changes of drugs enhancing dopaminergic function,[1],"decrease delta, theta and alpha2 frequencies"
